Measured values: patent US10137202B2 (priority 2014, dated 2018)
Square brackets hold non-standard residues; d marks the D form. Peptide text beside a SMILES is read from it. * marks the point of attachment. Dolaproine = CO[C@@H]([C@@H]1CCCN1)[C@@H](C)C(=O)O; Dil = CC[C@H](C)[C@H](NC)[C@@H](CC(=O)O)OC; X3 = C[C@@H](N*)[C@@H](O)c1ccccc1; NMeV = CN[C@H](C(=O)O)C(C)C

System: HT1080 cells
Format: cell-based, human
Conditions: read-out: IC50 (CPA assay; nM)

CC[C@H](C)[C@@H]([C@@H](CC(=O)N1CCC[C@H]1[C@H](OC)[C@@H](C)C(=O)N[C@H](C)[C@@H](O)c1ccccc1)OC)N(C)C(=O)[C@@H](NC(=O)[C@@H](NC)C(C)C)C(C)C [MMAE, reference compound] (H-[NMeV]V[Dil][Dolaproine]-X3)
IC50: 0.1 to 0.6 nM
